# Test results taken from patent publication US5243049A, “Certain pyrroloquinolinones: a new class of GABA brain receptor ligands” (Neurogen Corporation, priority 1992, dated 1993).
# Tested on: benzodiazepine binding site / GABA receptor
# Assay: not given
# Conditions: brain membranes; cited from earlier work
row,Structure (SMILES),Block of enhancement of benzodiazepine binding by GABA agonists
1,CN1CCc2cc3c(cc2[C@H]1[C@@H]1OC(=O)c2c1ccc1c2OCO1)OCO3 [(+) bicuculline],blocked
2,CN1CCc2cc3c(cc2[C@@H]1[C@H]1OC(=O)c2c1ccc1c2OCO1)OCO3 [(-) bicuculline],much less active

# Target: GABAa receptor
# Assay: Inhibition of 3H-RO15-1788 [3H-Flumazenil] binding to rat cortical tissue (GABAa receptor activity)
# Conditions: 0.5 nM 3H-RO15-1788, 30 min at 4° C., pH 7.4
# Procedure: The pharmaceutical utility of compounds of this invention are indicated by the following assay for GABAa receptor activity.
# Assays are carried out as described in Thomas and Tallman (J. Bio. Chem. 156: 9838-9842, J. Neurosci. 3:433-440, 1983). Rat cortical tissue is dissected and homogenized in 25 volumes (w/v) of 0.05M Tris HCl buffer (pH 7.4 at 4° C.). The tissue homogenate is centrifuged in the cold (4° C.) at 20,000×g for 20 minutes. The supernatant is decanted and the pellet is rehomogenized in the same volume of buffer and again centrifuged at 20,000×g. The supernatant is decanted and the pellet is frozen at -20° C. overnight. The pellet is then thawed and rehomogenized in 25 volume (original wt/vol) of buffer and the procedure is carried out twice. The pellet is finally resuspended in 50 volumes (w/vol of 0.05M Tris HCl buffer (pH 7.4 at 4° C.).
# Incubations contain […] of radioligand 0.5 nM (^3 H-RO15-1788 [^3 H-Flumazenil] specific activity 80 Ci/mmol), drug or blocker and buffer to a total volume of […]. Incubations are carried for 30 min at 4° C. then are rapidly filtered through GFB filters to separate free and bound ligand. Filters are washed twice with fresh 0.05M Tris HCl buffer (pH 7.4 at 4° C.) and counted in a liquid scintillation counter. […] diazepam is added to some tubes to determine nonspecific binding. Data are collected in triplicate determinations, averaged and % inhibition of total specific binding is calculated. Total Specific Binding=Total-Nonspecific. In some cases, the amounts of unlabeled drugs is varied and total displacement curves of binding are carried out. Data are converted to a form for the calculation of IC50 and Hill Coefficient (nH).
row,IC50,Structure (SMILES)
1,36 nM,"O=C1c2c(c3ccccc3[nH]c2=O)C(=O)N1c1ccccc1 [Compound 1, 2'-Phenyl-pyrrolo[3,4-c]quinoline-1,3,4(5H)-trione]"
2,400 nM,"COc1ccc(N2C(=O)c3c(c4ccccc4[nH]c3=O)C2=O)cc1 [Compound 2, 2-(4-Methoxyphenyl)-pyrrolo[3,4-c]quinoline-1,3,4(5H)-trione]"
3,700 nM,"O=C1c2c(c3ccccc3[nH]c2=O)C(=O)N1c1ccccc1F [Compound 4, 2-(2-Fluorophenyl)-pyrrolo[3,4-c]quinoline-1,3,4(5H)-trione]"
4,602 nM,"O=C1c2c(c3ccccc3[nH]c2=O)CN1c1ccccc1 [Compound 16, 2-Phenyl-pyrrolo[3,4-c]quinoline-3(1H),4(5H)-dione]"
